Several values for one entry are separate records, joined by “and”; a condition that tells them apart may be missing. Identical values can stand only once.
Columns and labels:
In vitro lipolysis study = assay type: in vitro ADME; conditions: lipolysis medium pH 6.5, pancreatic lipase, 37°C, 20 mg scutellarin equivalent, n = 3
Method: In vitro lipolysis studies were performed as previously described, [22] with minor modifications. Briefly, lipolysis medium was prepared in advance, containing 5 mM bile salt, 2 mM trizma maleate buffer, 1.25 mM phosphatidyl choline, and 150 mM sodium chloride, and was adjusted to pH 6.5 with 0.1 M NaOH. Then according to the single-dosage of commercial oral solution detailed as 70 mg scutellarin administrated into 900 mL GI medium, scutellarin powder, SPC, conventional SEDDS and super-SEDDS with a dose of 20 mg (equivalent to scutellarin) were dispersed in 250 mL warmed lipolysis medium (37°C), with a stirring rate of 100 rpm. After that, lipolysis was initiated by adding 50 mL freshly prepared pancreatic lipase solution (2000 TBU/mL, pH 6.5, 37°C), then controlled by constantly pumping 0.15 M CaCl2 with a rate of 0.25 mL/min. Over the lipolysis period, pH value was maintained at 6.5 by a pH-stat device (902 Titrando, Metrohm, Switzerland). At pre-determined time intervals (5, 10, 20, 30, 45, 60, 90, 120 min), 5 mL digested medium was taken and filtered by 0.45 µm polypropylene membrane. The filtered samples were immediately diluted 10 times with acetonitrile to stop lipolysis and induce protein precipitation. At last, the diluted samples were centrifuged at 10,000 rpm for 10 min (Centrifuge 5810R, Eppendorf, Germany), and subsequently analyzed by HPLC (as mentioned later).

[1] = In vivo pharmacokinetics after oral dosing; conditions: male, Sprague-Dawley, rat, plasma, 40 mg/kg equivalent to scutellarin, SD rats, n = 5, mean ± SD
Method: 20 male SD rats (300∼350 g) were fasted but allowed free access to water for 12 h, then divided randomly into 4 groups for the pharmacokinetics experiments of scutellarin powder, SPC, conventional SEDDS and Super-SEDDS. In order to avoid failure detection of plasma drug, the various formulations were orally administrated to rats at a dose of 40 mg/kg, according to the highest dosage of commercial oral solution, with a ceiling volume of 10 mL/kg when dispersed by purified water. The blood samples of 0.5 mL were collected in a 1.5 mL heparin treated EP tube from the orbital venous prior to the dose and at 0.5, 1, 2, 3, 4, 5, 6, 8, 10, 12, 24 and 36 h after the dose. The plasma was immediately isolated from whole blood by centrifugation (4000 rpm, 10 min) at room temperature and then stored in a −80°C freezer until analysis.
An HPLC analysis system (HP 1100 series, Agilent Technologies, Wilmington, Germany) of a quaternary pump, an autosampler and a UV detector with an ODS-C18 column (250 mm×4.6 mm i.d., Sepax Technologies Inc., Delaware, USA), was used for the determination of scutellarin. The mobile phase was a mixture of methanol, acetonitrile and 50 mM KH2PO4, at a ratio of 22∶15:63 (v/v/v), with pH of 2.5 adjusted by phosphoric acid. The detection was carried out at a wavelength of 335 nm, with a flow rate of 1.0 mL/min at room temperature.
200 µL of thawed plasma was removed to a 10 mL EP tube. 50 µL of internal standard working solution (20 µg/mL of rutin in methanol) was added and subsequently acidified by 100 µL of phosphoric acid (10 wt %) for 10 min. Then, 3 mL of ethyl acetate was infused for extracting scutellarin from plasma. After 30 min vortex, samples were centrifuged at 4000 rpm for 10 min, and the isolated supernatant was concentrated under nitrogen gas flow in bath of 40°C. Before HPLC detection, it needed to be re-dissolved by 100 µL of HPLC mobile phase and centrifuged at 10,000 rpm for 5 min. The whole analytical methodology including plasma treatment and HPLC detection was validated by accuracy and precision (see Table 2) as previously described.
The plasma data was analyzed in batches by DAS 2.0 (Mathematical Pharmacology Professional Committee of China, Shanghai, China). Peak plasma concentration (Cmax) and the time to reach Cmax (Tmax) were based on measured values. Area under the curve (AUC0-t) was calculated via a trapezoidal area method. […] All values were expressed as the mean ± standard deviation. The significant differences between each group were determined by one way analysis of variance (ANOVA) using the statistical package for social sciences software (SPSS® version 17.0, SPSS Inc., Shanghai, China), with the significance defined as p<0.05 and high significance as p<0.001.

[2] = Ex vivo intestinal absorption, everted intestinal sac; assay type: in vitro ADME, Sprague-Dawley (SD) rats; conditions: everted rat jejunum sac, 50 µg/mL scutellarin
Method: An everted intestinal sac experiment, modified according to the method previously described, was adopted to evaluate the ex vivo intestinal absorption of scutellarin. Kreb-Ringer’s (K–R) solution, containing 342.0 mM NaCl, 6.7 mM KCl, 5.9 mM CaCl2·2H2O, 5.3 mM MgCl2, 59.5 mM NaHCO3, 2.1 mM NaH2PO4 and 5.5 mM glucose, was prepared in advance. Half was cooled in 4°C refrigerator and the rest was warmed in a 37°C water bath. Scutellarin powder, SPC, conventional SEDDS and Super-SEDDS were dispersed in warmed K–R solution with a concentration of 50 µg/mL scutellarin, approximate to the lowest released concentration of drug during the lipolysis test. Male Sprague-Dawley (SD) rats were fasted overnight and then anesthetized with an intraperitoneal injection of chloral hydrated (10%, w/v) at a dose of 0.4 mL per 100 g. After dissection of the abdominal wall, the jejunum (21 cm from the pylorus) was carefully isolated without any mesentery, clipped into segments of 10 cm, and quickly rinsed in cooled K–R solution. […] After the tests, the length and width of the intestinal segments were measured for the calculation of uptake amount per unit area.

[3] = design: method as in PMID 16269273; conditions: cited from earlier work

O=C(O)[C@H]1O[C@@H](Oc2cc3oc(-c4ccc(O)cc4)cc(=O)c3c(O)c2O)[C@H](O)[C@@H](O)[C@@H]1O [Scutellarin powder, Scutellarin]
cumulative dissolution percentage (In vitro lipolysis study): 70% and 70.1±3.2%
AUC(0-t) [1]: 2670 ± 404 ng·h/mL
Cmax [1]: 178 ± 35 ng/mL
Tmax [1]: 5.2 ± 0.8 h
half-life ([1]; read-out: T1/2z (converted)): 34.8 ± 22.8 h
intestinal absorption (cumulative) [2]: 0.04 µg/cm^2
pKa [3]: 3.29
